Reference: PubChem BioAssay AID248 (DTP/NCI, 2004)
“And” between values parts separate entries of the source, which are not always exact repeats. Equal values may be shown once. Inconclusive results and toxic doses are left out. No stated cut-off is given here; in the data, active means T/C of 150% or more; inactive means T/C below 125%.

Test system: L1210 leukemia ip in BDF1 mice, survival T/C
Assay: NCI In Vivo Anticancer Drug Screen. Data for tumor model L1210 Leukemia (intraperitoneal) in B6D2F1 (BDF1) mice
Conditions: endpoint: mean survival time, higher = longer survival
How it was run: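 Read-out is survival time, reported as the treated-group measurement over the vehicle-control measurement.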

[1] = dose: 100.0 mg/kg/injection, schedule: Q01DX009 (ip), vehicle: saline with Tween-80
[2] = dose: 100.0 mg/kg/injection, schedule: Q04DX003 (ip), vehicle: saline with Tween-80
[3] = dose: 200.0 mg/kg/injection, schedule: Q04DX003 (ip), vehicle: saline with Tween-80
[4] = dose: 100.0 mg/kg/injection, schedule: Q01DX001 (ip), vehicle: saline
[5] = dose: 200.0 mg/kg/injection, schedule: Q01DX001 (ip), vehicle: saline
[6] = dose: 100.0 mg/kg/injection, schedule: Q01DX009 (ip), vehicle: Klucel (hydroxypropylcellulose) (HPC)
[7] = dose: 200.0 mg/kg/injection, schedule: Q01DX009 (ip), vehicle: Klucel (hydroxypropylcellulose) (HPC)
[8] = dose: 400.0 mg/kg/injection, schedule: Q01DX009 (ip), vehicle: Klucel (hydroxypropylcellulose) (HPC)
[9] = dose: 100.0 mg/kg/injection, schedule: Q04DX003 (ip), vehicle: saline
[10] = dose: 200.0 mg/kg/injection, schedule: Q04DX003 (ip), vehicle: saline
[11] = dose: 400.0 mg/kg/injection, schedule: Q04DX003 (ip), vehicle: saline
[12] = dose: 400.0 mg/kg/injection, schedule: Q01DX001 (ip), vehicle: saline
[13] = dose: 100.0 mg/kg/injection, schedule: Q04DX003 (ip), vehicle: Klucel (hydroxypropylcellulose) (HPC)
[14] = dose: 200.0 mg/kg/injection, schedule: Q04DX003 (ip), vehicle: Klucel (hydroxypropylcellulose) (HPC)
[15] = dose: 400.0 mg/kg/injection, schedule: Q04DX003 (ip), vehicle: Klucel (hydroxypropylcellulose) (HPC)
[16] = dose: 200.0 mg/kg/injection, schedule: Q01DX009 (ip), vehicle: saline with Tween-80
[17] = dose: 400.0 mg/kg/injection, schedule: Q01DX009 (ip), vehicle: saline with Tween-80
[18] = dose: 200.0 mg/kg/injection, schedule: Q04DX002 (ip), vehicle: Klucel (hydroxypropylcellulose) (HPC)
[19] = dose: 400.0 mg/kg/injection, schedule: Q04DX002 (ip), vehicle: Klucel (hydroxypropylcellulose) (HPC)

Measured: T/C

O=C(CC(O)(C(F)(F)F)C(F)(F)F)c1cccs1
inactive: dose: 50.0 mg/kg/injection, schedule: Q01DX009 (ip), vehicle: saline with Tween-80 109 % of control | dose: 50.0 mg/kg/injection, schedule: Q04DX003 (ip), vehicle: saline with Tween-80 98 % of control | [1] 102 % of control | [2] 98 % of control | [3] 96 % of control

CC(=O)N(C)NC(=O)c1ccccn1
inactive: dose: 12.5 mg/kg/injection, schedule: Q01DX009 (ip), vehicle: water 103 % of control | dose: 25.0 mg/kg/injection, schedule: Q01DX009 (ip), vehicle: water 103 % of control | dose: 50.0 mg/kg/injection, schedule: Q01DX009 (ip), vehicle: water 105 % of control

Cc1cn(C2CC(O)C(CO)O2)c(=O)[nH]c1=O (stereo unspecified)
inactive: dose: 50.0 mg/kg/injection, schedule: Q03HX024 (ip), vehicle: saline 100 % of control | dose: 100.0 mg/kg/injection, schedule: Q03HX024 (ip), vehicle: saline 100 % of control | dose: 200.0 mg/kg/injection, schedule: Q03HX024 (ip), vehicle: saline 98 % of control | dose: 400.0 mg/kg/injection, schedule: Q03HX024 (ip), vehicle: saline 100 % of control

CN1C(OO)CCOP1(=O)N(CCCl)CCCl (stereo unspecified)
inactive: dose: 75.0 mg/kg/injection, schedule: Q01DX001 (ip), vehicle: DMSO 96 % of control | dose: 150.0 mg/kg/injection, schedule: Q01DX001 (ip), vehicle: DMSO 99 % of control

Cc1cccc(C)c1N(C=O)N=O
inactive: [4] 110 % of control | [5] 104 % of control

COC(=O)c1ccc(OC(=O)Nc2cccc(C(C)=O)c2)cc1
inactive: [6] 96 % of control | [7] 101 % of control | [8] 104 % of control

CN(Cc1ccc(Cl)cc1)C(=O)Nc1cccc(C(F)(F)F)c1
inactive: dose: 25.0 mg/kg/injection, schedule: Q01DX009 (ip), vehicle: Klucel (hydroxypropylcellulose) (HPC) 96 % of control | dose: 50.0 mg/kg/injection, schedule: Q01DX009 (ip), vehicle: Klucel (hydroxypropylcellulose) (HPC) 100 % of control | [6] 100 % of control and 90 % of control | [8] 88 % of control

CCCCCCCCCCCCCCCCC/C=N\NC(=O)CCCC(=O)N/N=C/CCCCCCCCCCCCCCCCC
inactive: dose: 50.0 mg/kg/injection, schedule: Q01DX001 (ip), vehicle: other 90 % of control | dose: 200.0 mg/kg/injection, schedule: Q01DX001 (ip), vehicle: other 88 % of control

O=C(CCCCC(=O)N(CCO)CCO)N(CCO)CCO
inactive: [9] 102 % of control | [10] 100 % of control | [11] 102 % of control

CC(OC(=O)c1ccccc1)C(N)=S (stereo unspecified)
inactive: [4] 102 % of control | dose: 100.0 mg/kg/injection, schedule: Q01DX009 (ip), vehicle: acetone 93 % of control | dose: 100.0 mg/kg/injection, schedule: Q04DX003 (ip), vehicle: acetone 101 % of control | [5] 93 % of control | dose: 200.0 mg/kg/injection, schedule: Q01DX009 (ip), vehicle: acetone 95 % of control | dose: 200.0 mg/kg/injection, schedule: Q04DX003 (ip), vehicle: acetone 102 % of control | [12] 103 % of control | dose: 400.0 mg/kg/injection, schedule: Q01DX009 (ip), vehicle: acetone 96 % of control | dose: 400.0 mg/kg/injection, schedule: Q04DX003 (ip), vehicle: acetone 102 % of control

O=C1OCCN1C(=O)c1ccc(Cl)c(Cl)c1
inactive: dose: 25.0 mg/kg/injection, schedule: Q01DX007 (ip), vehicle: Klucel (hydroxypropylcellulose) (HPC) 97 % of control | dose: 50.0 mg/kg/injection, schedule: Q01DX007 (ip), vehicle: Klucel (hydroxypropylcellulose) (HPC) 95 % of control | dose: 100.0 mg/kg/injection, schedule: Q01DX001 (ip), vehicle: Klucel (hydroxypropylcellulose) (HPC) 100 % of control | dose: 100.0 mg/kg/injection, schedule: Q01DX007 (ip), vehicle: Klucel (hydroxypropylcellulose) (HPC) 100 % of control | [6] 94 % of control | [13] 95 % of control | dose: 200.0 mg/kg/injection, schedule: Q01DX001 (ip), vehicle: Klucel (hydroxypropylcellulose) (HPC) 94 % of control | [14] 100 % of control | dose: 400.0 mg/kg/injection, schedule: Q01DX001 (ip), vehicle: Klucel (hydroxypropylcellulose) (HPC) 96 % of control | [8] 87 % of control | [15] 100 % of control

Cc1cnc(SCc2ccccc2Cl)[nH]c1=O
inactive: dose: 25.0 mg/kg/injection, schedule: Q01DX Z (ip), vehicle: methylcellulose (MC) 90 % of control | dose: 50.0 mg/kg/injection, schedule: Q01DX Z (ip), vehicle: methylcellulose (MC) 100 % of control

CCCCCCCCCCCCCCCCCC(=O)OCCOC(=O)CCCCCCCCCCCCCCCCC
inactive: dose: 75.0 mg/kg/injection, schedule: Q01DX009 (ip), vehicle: other 103 % of control | dose: 100.0 mg/kg/injection, schedule: Q04DX002 (ip), vehicle: other 88 % of control | dose: 150.0 mg/kg/injection, schedule: Q01DX009 (ip), vehicle: other 96 % of control | dose: 200.0 mg/kg/injection, schedule: Q04DX002 (ip), vehicle: other 98 % of control | dose: 300.0 mg/kg/injection, schedule: Q01DX009 (ip), vehicle: other 111 % of control

CCC(C)C(CCCCN1CCOCC1)(CNC(=O)CN(CC)CC)c1cccc2ccccc12 (stereo unspecified)
inactive: dose: 12.5 mg/kg/injection, schedule: Q04DX003 (ip), vehicle: saline 104 % of control | dose: 25.0 mg/kg/injection, schedule: Q04DX003 (ip), vehicle: saline 98 % of control | dose: 50.0 mg/kg/injection, schedule: Q04DX003 (ip), vehicle: saline 108 % of control

CCOC(=O)c1cc(C(=O)OCC)c[n+](CCCl)c1
inactive: dose: 8.0 mg/kg/injection, schedule: Q01DX010 (ip), vehicle: other 104 % of control | dose: 16.0 mg/kg/injection, schedule: Q01DX010 (ip), vehicle: other 104 % of control | dose: 32.0 mg/kg/injection, schedule: Q01DX010 (ip), vehicle: other 111 % of control | dose: 64.0 mg/kg/injection, schedule: Q01DX010 (ip), vehicle: other 109 % of control | dose: 64.0 mg/kg/injection, schedule: Q01DX Z (ip), vehicle: other 105 % of control

COc1ccc(C(=O)CSc2cc[o+]cc2)cc1
inactive: [4] 95 % of control | [1] 94 % of control | [9] 95 % of control | [5] 97 % of control | [16] 104 % of control | [10] 92 % of control | [12] 106 % of control | [17] 90 % of control | [11] 97 % of control

COC1(OC)C2(Cl)C=CC1(Cl)C1CC12 (stereo unspecified)
inactive: dose: 100.0 mg/kg/injection, schedule: Q04DX002 (ip), vehicle: Klucel (hydroxypropylcellulose) (HPC) 97 % of control | [18] 107 % of control | [19] 100 % of control

Cc1ccccc1SCCC(=O)O
inactive: [4] 100 % of control | [6] 92 % of control | [5] 87 % of control | [7] 96 % of control | [12] 87 % of control | [8] 94 % of control

NC(=O)CN1C(=O)c2ccccc2C1=O
inactive: [1] 97 % of control | [2] 97 % of control | [16] 89 % of control | [3] 97 % of control | [17] 91 % of control | dose: 400.0 mg/kg/injection, schedule: Q04DX003 (ip), vehicle: saline with Tween-80 97 % of control

CC(Cc1ccccc1)NC(=O)/C=C/C(=O)O (stereo unspecified)
inactive: [6] 96 % of control | [13] 103 % of control | [7] 106 % of control | [14] 90 % of control | [8] 95 % of control | [15] 101 % of control

COc1ccc(OC)c(NC(=O)Nc2cc([N+](=O)[O-])ccc2C)c1
inactive: [18] 92 % of control | [19] 100 % of control

COc1cc(NCCCNc2c3ccc(Cl)cc3nc3ccc(OC)cc23)c2ncccc2c1
inactive: [6] 100 % of control
